The subject of one assay is purified tubulin. The assay is described as follows: In vitro inhibition of tubulin polymerization. It is filed as biochemical. To be noted: purified bovine brain tubulin 1.5 mg/ml, preincubated 15 minutes at 37° C., GTP-induced, 350 nm. How it is done: IC50 values for tubulin polymerization were determined according to a previously described procedure (Bai et al., Cancer Research, 1996) and are summarized in Table 3 below. Purified tubulin is obtained from bovine brain cells as previously described (Hamel and Lin, Biochemistry, 1984). Various amounts of inhibitor were preincubated for 15 minutes at 37° C. with purified tubulin. After the incubation period, the reaction was cooled and GTP was added to induce tubulin polymerization. Polymerization was then monitored in a Gilford spectrophotometer at 350 nm. The final reaction mixtures (0.25 ml) contained 1.5 mg/ml tubulin, 0.6 mg/ml microtubule-associated proteins (MAPs), 0.5 mM GTP, […], 4% DMSO and 0.1M 4-morpholineethanesulfonate buffer (MES, pH 6.4). IC50 is the amount of inhibitor needed to inhibit tubulin polymerization 50% with respect to the amount of […] that occurs in the absence of inhibitor.

A further assay concerns SF-268. The assay is described as follows: In vitro growth inhibition, SRB assay, CNS SF-268. It is filed as cell-based. To be noted: Homo sapiens, CNS SF-268, 48 hours incubation, read-out: GI50 (μM/mL) for Cell Line SF-268. The method, then: (§1) Newly prepared compounds were evaluated for cytotoxic activity against a variety of cell lines derived from human tumors using an assay system similar to the National Cancer Institute procedure previously described (Monks et al., J. Natl. Cancer Inst., 1991). Briefly, the cell suspensions, diluted according to the particular cell type and the expected target cell density (5,000-40,000 cells per well based on cell growth characteristics), were added by pipet (100 ul) to 96-well microtiter plates. Inoculates were allowed a preincubation time of 24-28 hours at 37 C for stabilization. Incubation with the inhibitor compounds lasted for 48 hours in 5% CO2 atmosphere and 100% humidity. Determination of cell growth was performed by in situ fixation of cells, followed by staining with a protein-binding dye sulforhodamine B (SRB), which binds to the basic amino acids of cellular macromolecules. The solubilized stain was measured spectrophotometrically.
(§2) Several compounds were evaluated for cytotoxic activity against […] P388 leukemia cell lines. The effective dose or ED50 value (defined as the effective dosage required for inhibition of 50% of cell growth) was measured. These and additional compounds were evaluated in terms of growth inhibitory activity against several other human cancer cell lines including: central nervous system (“CNS”, SF-268), pancreas (BXPC-3), non-small cell lung cancer (“lung-NSC”, NCI-H460), breast (MCF-7), colon (KM20L2), ovarian (OVCAR-3), and prostate (DU-145). The growth inhibition GI50 (defined as the dosage required for inhibition of tumor cell growth by 50%) is listed for each cell line.
On the technique in general: Sulforhodamine B stains cellular protein and so reports cell mass.

Another assay deals with BXPC-3. Put plainly: In vitro growth inhibition, SRB assay, pancreas BXPC-3. The assay is classed as cell-based. To be noted: Homo sapiens, 48 hours incubation, read-out: GI50 (μM/mL) for Cell Line BXP-3. How it is done:
as §1, §2

For the next assay, the system named is NCI-H460. The assay is described as follows: In vitro growth inhibition, SRB assay, lung-NSC NCI-H460. The assay is classed as cell-based. To be noted: Homo sapiens, lung-NSC NCI-H460, 48 hours incubation, read-out: GI50 (μM/mL) for Cell Line NCI-H460. The method, then:
as §1, §2

The next assay concerns MCF-7. Put plainly: In vitro growth inhibition, SRB assay, breast MCF-7. It is filed as cell-based. To be noted: Homo sapiens, MCF7, breast MCF-7, 48 hours incubation, read-out: GI50 (μM/mL) for Cell Line MCF-7. How it is done:
as §1, §2

For the next assay, the system named is KM20L2. Put plainly: In vitro growth inhibition, SRB assay, colon KM20L2. The assay is classed as cell-based. To be noted: Homo sapiens, KM-20L2, colon KM20L2, 48 hours incubation, read-out: GI50 (μM/mL) for Cell Line KM20L2. The method, then:
as §1, §2

A further assay deals with DU-145. The assay is described as follows: In vitro growth inhibition, SRB assay, prostate DU-145. It is filed as cell-based. To be noted: Homo sapiens, prostate DU-145, 48 hours incubation, read-out: GI50 (μM/mL) for Cell Line DU-145. How it is done: as §1, §2

The structures appear in SMILES notation. ≈ marks a conversion by molar mass, not a printed value.

These results are taken from patent US8394859B2, “Combretastatin analogs with tubulin binding activity” (Baylor University, priority 2005, dated 2013).

For orientation: IC50 means the concentration that gives 50% inhibition. For `COc1ccc(/C=C\c2cc(OC)c(OC)c(OC)c2)cc1O` [CA-4, Combretastatin A-4, reference compound], half-maximal inhibition in the assay with purified tubulin (IC50) was put at […].

As to `COc1ccc2c(c1)CCCC(c1cc(OC)c(OC)c(OC)c1)=C2` [Compound 1, 3-Methoxy-8-(3,4,5-trimethoxy-phenyl)-6,7-dihydro-5H-benzocycloheptene], the IC50 in the assay on purified tubulin was ~40 µM. In addition, the GI50 turned out to be 0.28 µg/mL (≈ 0.823 µM) in the assay with SF-268; 0.4 µg/mL (≈ 1.18 µM) with BXPC-3; 0.23 µg/mL (≈ 0.676 µM) with NCI-H460; 0.32 µg/mL (≈ 0.94 µM) in the assay with MCF-7; 0.2 µg/mL (≈ 0.588 µM) with KM20L2; 0.33 µg/mL (≈ 0.969 µM) in the assay on DU-145.

For `COc1ccc2c(c1)CCCC=C2c1cc(OC)c(OC)c(OC)c1` [Compound 2, 3-Methoxy-9-(3,4,5-trimethoxy-phenyl)-6,7-dihydro-5H-benzocycloheptene], in the assay on purified tubulin, the IC50 is 1.4 ± 0.2 µM. For the same compound, the GI50 with SF-268, with BXPC-3, with NCI-H460, in the assay on MCF-7, in the assay with KM20L2 and in the assay with DU-145 was > 10 µg/mL in each case.

As to `COc1ccc2c(c1O)CCCC(c1cc(OC)c(OC)c(OC)c1)=C2` [Compound 3, 2-Methoxy-6-(3,4,5-trimethoxy-phenyl)-8,9-dihydro-7H-benzocyclohepten-1-ol], the IC50 with purified tubulin is ~40 µM.

With `COc1ccc(C(=O)C2=CCCCc3c2cc(OC)c(OC)c3OC)c(O)c1O` [Compound 23, (2,3-Dihydroxy-4-methoxy-phenyl)-(1,2,3-trimethoxy-8,9-dihydro-7H-benzocyclohepten-5-yl)-methanone], in the assay on purified tubulin, the IC50 is ~40 µM. For the same compound, the GI50 with SF-268 worked out at 0.009 µg/mL (≈ 0.0225 µM); with BXPC-3, 0.017 µg/mL (≈ 0.0425 µM); with NCI-H460, 0.023 µg/mL (≈ 0.0574 µM); in the assay on MCF-7 it was 0.0059 µg/mL (≈ 0.0147 µM); with KM20L2, 0.031 µg/mL (≈ 0.0774 µM); in the assay with DU-145, 0.026 µg/mL (≈ 0.0649 µM).

As for `COc1ccc(C(=O)C2=CCCCc3c2cc(OC)c(OC)c3OC)cc1O` [Compound 24, (3-Hydroxy-4-methoxy-phenyl)-(1,2,3-trimethoxy-8,9-dihydro-7H-benzocyclohepten-5-yl)-methanone], in the assay with purified tubulin, the IC50 is ~40 µM.
